Test results as given in patent US5750362A, “Methods for identifying substances with a potential herbicidal or growth-regulating action by means of plant transporter proteins, the use of the transporter proteins, and substances with a herbicidal and growth-regulating action” (BASF Aktiengesellschaft, priority 1993, dated 1998).
Where two headings read alike, the source gives them in different places.

Experiments:
[1] = molecular target: T1, ammonium transporter AMT1 (Arabidopsis thaliana, UniProt P54144); assay: cell-based
T1 construct: expressed in transfected cells; host or cells: Saccharomyces cerevisiae 26972c (mutations in MEP1 and MEP2)
T1 sequence (P54144 1-501): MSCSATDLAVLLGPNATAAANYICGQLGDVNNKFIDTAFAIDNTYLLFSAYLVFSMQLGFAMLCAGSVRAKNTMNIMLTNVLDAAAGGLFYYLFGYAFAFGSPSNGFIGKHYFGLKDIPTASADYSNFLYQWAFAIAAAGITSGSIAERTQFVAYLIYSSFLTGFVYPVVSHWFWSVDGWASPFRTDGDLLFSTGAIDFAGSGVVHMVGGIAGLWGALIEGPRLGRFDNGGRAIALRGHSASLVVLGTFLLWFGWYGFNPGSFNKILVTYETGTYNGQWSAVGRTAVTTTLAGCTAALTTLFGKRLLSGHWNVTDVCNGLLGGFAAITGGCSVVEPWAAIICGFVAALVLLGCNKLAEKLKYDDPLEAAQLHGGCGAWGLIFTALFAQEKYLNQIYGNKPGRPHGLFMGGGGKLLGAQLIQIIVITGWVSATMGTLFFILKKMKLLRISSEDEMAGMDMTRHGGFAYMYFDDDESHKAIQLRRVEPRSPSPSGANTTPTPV
Description: The measurements of transport identify inhibitors of plant ammonium transporters are carried out with the structural analog methylamine because radiolabeled ammonium is not commercially obtainable.
The yeast cells are transformed by standard methods with cDNA sequences which code for an ammonium transporter from plants and which permit expression of a functional transporter in the yeast cells. […] The cells are cultured in NAAG-medium (2% glucose, 1.7 g/l yeast nitrogen-base w/o amino acids and ammonium sulfate (Difco), supplemented with 500 μg/ml L-proline) at 28 degrees Celsius, and harvested in the logarithmic phase (OD660.=0.6). The cells are then spun down in a centrifuge at 4000 rpm and 4 degrees Celsius for 10 minutes, washed twice with 20 mM sodium phosphate buffer, pH 7, and taken up in the same buffer to an 0D660 of 8. 200 μl aliquot fractions of the cell suspension are taken. 5 minutes before the actual measurement,the yeasts are activated by addition of 100 mM glucose and incubated at 30 degrees Celsius. To start the reaction, 100 μl of the cell suspension are added to 100 µl of reaction mixture (20 mM Na phosphate buffer, pH7; 18.5 kBq of [^14 C]-methylamine (NEN); 100 M methylamine; substance to be tested depending on the experiment (see FIG. 4)). In each case 10, 60, 120 and 180 seconds after starting the reaction, 50 μl aliquots are taken, added to 4 ml of ice-cold 5 mM methylamine solution and filtered on glass fibre filters. After the filters have been washed with a further 8 ml of a methylamine solution, the radioactivity on the filters is subsequently determined in a liquid scintillation counter. Inhibitors are added 60 seconds before adding the glucose.
The uptake of radiolabeled methylamine without addition of a potential inhibitor is determined as one control.

[2] = molecular target: T2, amino-acid transporter AAP2 (Arabidopsis thaliana, UniProt Q38967); assay: Uptake of radiolabeled L-proline by yeast mutant 22457d-AAP2 expressing the plant amino-acid transporter; format: cell-based; conditions: read-out: Activity relative to control [%]
T2 construct: expressed in transfected cells; host or cells: Saccharomyces cerevisiae mutant 22574d (also printed 22457d)
T2 sequence (Q38967 1-493): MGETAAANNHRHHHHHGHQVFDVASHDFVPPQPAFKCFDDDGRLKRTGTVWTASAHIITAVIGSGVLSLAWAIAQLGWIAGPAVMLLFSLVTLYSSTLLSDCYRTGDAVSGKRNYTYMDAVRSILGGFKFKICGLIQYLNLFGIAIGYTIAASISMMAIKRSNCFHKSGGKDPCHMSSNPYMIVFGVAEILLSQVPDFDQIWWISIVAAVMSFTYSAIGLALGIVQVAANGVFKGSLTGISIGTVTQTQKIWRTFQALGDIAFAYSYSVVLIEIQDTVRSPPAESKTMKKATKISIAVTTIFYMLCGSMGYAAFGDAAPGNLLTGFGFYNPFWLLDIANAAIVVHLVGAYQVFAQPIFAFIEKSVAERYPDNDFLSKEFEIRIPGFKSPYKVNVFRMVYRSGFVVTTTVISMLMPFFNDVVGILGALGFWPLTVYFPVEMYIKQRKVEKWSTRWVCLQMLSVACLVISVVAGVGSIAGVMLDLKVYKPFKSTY
Description: Transporter investigations are carried out on the yeast mutant 22574d (Jauniaux & Grenson, Eur. J. Biochem. 190: 39-44, 1990), which harbors a mutation in the gene for amino-acid permease, and on the yeast mutant JT 16 (Tanaka and Fink, Gene 38: 205-214, 1985) which is incapable of histidine uptake, for identification of inhibitors of plant amino-acid transporters. These mutants are transformed with cDNA sequences which code for plant amino-acid transporters and lead to expression of functional transporters in the yeast cells. The cDNA sequences are cDNA sequences which code for the amino-acid transporters AAP1 and AAP2 from Arabidopsis thaliana (Frommer et al., 1993, Proc. Natl. Acad. Sci. USA 90: 5944-5948; Kwart et al., 1993, Plant J. 4:993-1002). For the measurements, cells of these mutants are cultured in minimal medium (NAAG+5 mmol/l proline) at 28° C. and harvested in the logarithmic phase (OD600 =0.6). The cells are spun down in a centrifuge at 4000 rpm and 4 degrees Celsius for 10 minutes and washed 2× with AUB buffer (modified AAB buffer, Ljungdahl et al.). The cell concentration is adjusted to an OD600 of 25 in AUB buffer.
100 μl portions of the cell suspension are mixed with 100 μl of a 1 mmol/l L-proline solution (18.5 kBq of L-[14C]-proline) and various concentrations of the appropriate substance to be investigated. After 20, 60, 120 and 180 seconds, a 50 μl aliquot is removed, diluted in 4 ml -of ice-cold AUB buffer and filtered through glass fever [sic] filter. In order to remove nonspecifically bound L-[14C]-proline, the cells are washed 2× with 4 ml of ice-cold water each time. The radioactivity retained on the glass filter is then measured in a liquid scintillation counter. The radioactivity reflects the amount of radiolabeled proline taken up by the cells. Uptake of radiolabeled proline without addition of a potential inhibitor is determined as one control. Cells of each of the mutants 22574d and JY 16 which have not been transformed with cDNA sequences coding for plant amino-acid transporters are used as further control. Results of measurements of this type on the mutants 22457d-AAP2 which expresses the amino-acid transporter AAP2 from Arabisopsis [sic] thaliana are shown in the following table.
For the investigations, yeast cells of the strain 22457d were transformed with a cDNA sequence which codes for the amino-acid transporter AAP2, and the uptake of radiolabeled proline in the presence of various substances was determined. The various substances tested, their concentration, and the activity of the transporter, shown as percentage activity of the control with which no potential inhibitors were added, are indicated.

[3] = molecular target: T3, sucrose transporter P62 (StSUT1) (Solanum tuberosum, UniProt Q43653); assay: [14C]-sucrose uptake by yeast strain SUSY-7-P62 (StSUT1) expressing the potato sucrose transporter; format: cell-based; conditions: pH 3.8, read-out: Activity relative to the control [%]
T3 construct: whole-cell [14C]-sucrose uptake; no tag or borders given
T3 sequence (Q43653 1-516): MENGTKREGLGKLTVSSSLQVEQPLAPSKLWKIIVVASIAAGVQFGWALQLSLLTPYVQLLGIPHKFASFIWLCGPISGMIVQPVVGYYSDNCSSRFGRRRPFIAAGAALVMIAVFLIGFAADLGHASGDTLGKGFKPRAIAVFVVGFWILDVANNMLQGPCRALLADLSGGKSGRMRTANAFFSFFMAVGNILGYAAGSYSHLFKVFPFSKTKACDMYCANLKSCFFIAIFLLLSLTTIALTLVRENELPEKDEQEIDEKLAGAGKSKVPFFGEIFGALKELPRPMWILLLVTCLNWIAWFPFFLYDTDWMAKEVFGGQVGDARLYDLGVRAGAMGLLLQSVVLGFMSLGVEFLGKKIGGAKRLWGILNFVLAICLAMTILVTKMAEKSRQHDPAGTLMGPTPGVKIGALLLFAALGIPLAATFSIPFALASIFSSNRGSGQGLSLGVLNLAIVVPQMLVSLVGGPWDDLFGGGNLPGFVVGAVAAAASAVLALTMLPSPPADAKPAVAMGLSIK
Text: Yeast cells of the strain SUSY7 (Riesmeier et al., 1992, EMBO J. 11: 4705-4713) are used to identify substances which have an inhibitory effect on sucrose transporters from potato. Cells of this strain are transformed with a cDNA sequence which codes for the sucrose transporter P62 (StSUT1) from potato (WO 94/00574, Riesmeier et al., 1993, Plant Cell 5:1591-1598) and which ensures expression of a functional transporter in the cells. The resulting yeast strain was called SUSY-7-P62 (StSUT1). The yeast cells are cultured in minimal medium (SD +2% (w/v) sucrose, pH 3.8) at 28° C. and harvested in the logarithmic phase (OD600 =0.6). The cells are spun down at 4000 rpm for 10 minutes and washed twice with SD medium. A cell concentration of c=50 g/l in SD medium is adjusted according to the wet weight of the cells, and 200 Al aliquot fractions are taken. Before the actual reaction, the cells are incubated in 10 mM glucose for 5 min and adjusted to pH 3.8 with MES buffer. The reaction is started by adding 200 Al of a 0.2 mmol/l [14C]-sucrose solution (3 mCi/mmol) in SD medium (pH 3.8). After 20, 60, 120, 180 and 240 seconds, 70 μl portions of the suspension are removed and pipetted into 4 ml of ice-cold water in order to stop the reaction. The cells are filtered off on glass fiber filters and washed twice with ice-cold water. The radioactivity on the filters is subsequently determined in a liquid scintillation counter. The substances to be tested are added 30 seconds before addition of the sucrose. The uptake of radiolabeled sucrose without addition of a potential inhibitor is determined as one control. Cells of the strain SUSY7 which are not transformed with cDNA sequences coding for a sucrose transporter from potato are employed as further control.
The various tested substances, their concentration and the activity of the transporter, shown as percentage activity of the control in which no potential inhibitors were added, are indicated.

plants = assay: Herbicidal activity on plants; format: in vivo; conditions: whole plants; result in words
[4] = system: sucrose transporter P62 (StSUT1); assay: Activation of sucrose transport by preincubation of the yeast cells; format: cell-based, Solanum tuberosum
Description: The transport of sucrose by the sucrose transporter P62 (StSUT1) from Solanum tuberosum can be increased by previous energizing of the yeast cells by incubation in glucose, stachyose and adenine. The same increase in transport activity is achieved by reducing the pH to pH 3.8 in the measurement. The measurement of transport to determine the activation takes place as described in Example 3 but the cells are incubated before the actual measurement not in 10 mM glucose for 5 min but in solutions of various concentrations of glucose, stachyose and adenine for 5 min. Yeast cells which are not incubated in solutions of these substances before the measurement act as control. The following table indicates the extent of activation of sucrose transport with various concentrations of glucose, stachyose and adenine compared with the control.

Question: With `O=[N+]([O-])c1ccc(O)c([N+](=O)[O-])c1` [DNP] as the compound, how does the remaining activity at 100 µM ([1]; pH 7, read-out: Activity relative to the control [%]) read?
Answer: 18%

Question: What about the remaining activity at 100 µM [2] of the same compound?
Answer: 7.6 ± 1.6%

Question: And the remaining activity at 100 µM [3]?
Answer: 3%

Question: With `CN` [Methylamine] as the compound, how does the “Herbicidal activity on plants” value (plants) read?
Answer: herbicidal activity on plants

Question: What about the remaining activity at 500 µM ([1]; pH 7, [14C]-methylamine uptake, tested substance 500 μM, read-out: Activity relative to the control [%]) of the same compound?
Answer: 40%

Question: Which remaining activity at 10000 µM ([2]; L-[14C]-proline uptake, tested substance 10 mM) does the source give for `O=C(O)C1CCN1` (stereo not shown) [Azetidine-2-carboxylate] here?
Answer: 62%

Question: How did the remaining activity at 10000 µM [2] turn out when `O=C(O)[C@H]1CCCN1` [D-Proline] was run?
Answer: 90%

Question: How did the “Effect on sucrose transport as a function of concentration” value ([4]; preincubation of yeast cells, result in words) turn out when `OC[C@H]1O[C@H](OC[C@H]2O[C@H](OC[C@H]3O[C@H](O[C@]4(CO)O[C@H](CO)[C@@H](O)[C@@H]4O)[C@H](O)[C@@H](O)[C@@H]3O)[C@H](O)[C@@H](O)[C@H]2O)[C@H](O)[C@@H](O)[C@H]1O` [Stachyose] was run?
Answer: stimulates sucrose transport at low concentrations, while this effect is reversed at high concentrations (c>0.4 mmol/l)

Question: And the “Activity relative to the control [%]” value ([4]; sucrose transport after 5 min preincubation with the substance at c1 [0.2 mol/l], 200000 µM)?
Answer: 144 ± 9%

Question: And the “Activity relative to the control [%]” value ([4]; sucrose transport after 5 min preincubation with the substance at c2 [2 mmol/l])?
Answer: 101 ± 8%
